The experiment deals with influenza virus A/Puerto Rico/8/34 (H1N1). More on the design: species or system BALB/cA Jcl [SPF] mice. The conditions noted are these: mouse, in vivo, iv.

With `CCC(CC)[C@H](NC(C)=O)[C@@H]1[C@H](O)[C@@H](C(=O)O)C[C@H]1N=C(N)N` [peramivir, reference compound], the survival rate was 20%.

The values are drawn from patent publication US12351652B2, “Hemagglutinin-binding peptide” (priority 2019, dated 2025).
